Data set [1] deals with bladder cancer cell line RT112. In words: High-throughput screening, cell viability, RT112. It is filed as cell-based. Particulars: seven days after drug treatment. On the procedure:
(§1) FIG. 11A, FIG. 11B and FIG. 11C show data confirming the cell viability inhibitory effect of seven types of payloads except Compound 3 (DS-24) on the glioblastoma cell line U87MG, the multiple myeloma cell line KMS11, and the bladder cancer cell line RT112, respectively. Also, FIG. 12A, FIG. 12B, FIG. 12C, FIG. 12D, FIG. 12E and FIG. 12F show data confirming the cell viability inhibitory effect of seven types of payloads except Compound 3 (DS-24) on 6 types of cells derived from a patient with glioblastoma, respectively.
(§2) After treatment with the drug diluted to 14 different concentrations based on 20 μM as the highest concentration, it was verified whether the effect is proportional depending on the drug concentration through the concentration graph for two repeated tests. The cell viability was analyzed seven days after drug treatment to calculate IC50 that inhibits 50% of the cell viability.

In data set [2] the test system is GBM#4 (Glioblastoma, PDC). In words: High-throughput screening, cell viability, GBM#4. It is filed as cell-based. To be noted: seven days after drug treatment. On the procedure: as §1, §2
For data set [3], the system named is glioblastoma cell line U87MG. As to the kind of experiment: High-throughput screening, cell viability, U87MG. It is filed as cell-based. Particulars: seven days after drug treatment. On the procedure: as §1, §2
The subject of data set [4] is GBM#2 (Glioblastoma, PDC). In words: High-throughput screening, cell viability, GBM#2. It is filed as cell-based. To be noted: seven days after drug treatment. On the procedure:
as §1, §2

For data set [5], the system named is multiple myeloma cell line KMS11. As to the kind of experiment: High-throughput screening, cell viability, KMS11. It is filed as cell-based. To be noted: seven days after drug treatment. On the procedure:
as §1, §2

The test system of data set [6] is GBM#1 (Glioblastoma, PDC). As to the kind of experiment: High-throughput screening, cell viability, GBM#1. It is filed as cell-based. To be noted: seven days after drug treatment. On the procedure: as §1, §2
Data set [7] deals with cell lines and cells derived from a patient with glioblastoma. In words: High-throughput screening, comparison of payloads across cell lines and brain tumor patient-derived cells. It is filed as cell-based. Particulars: for cell viability inhibitory effect on cells derived from a patient with glioblastoma compared to KMS11 and RT112: comparison between cells; for cell viability inhibitory effect compared with the other payloads: all cells. The method, then: as §1, §2

The subject of data set [8] is GBM#3 (Glioblastoma, PDC). As to the kind of experiment: High-throughput screening, cell viability, GBM#3. It counts as cell-based. To be noted: seven days after drug treatment. The method, then: as §1, §2
Data set [9] deals with Her2-positive human gastric cancer cells NCI-N87. In words: Cell growth inhibition assay (ATPlite), NCI-N87. To be noted: 3 days of incubation. Details: unit not given beside the values. It is filed as cell-based. On the procedure: (§3) Her2-positive human gastric cancer cells NCI-N87 and human ovarian cancer cells SK-OV3 purchased from the American Type Culture Collection (ATCC; Manassas, VA, USA) were seeded into a 384-well plate at 500 cells per well. After plating for 2 hours, the cells were treated in quadruplicate with toxins in 5-fold and 14-point serial dilution series. After 3 days of incubation at 37° C. in a 5% CO2 humidified incubator, cell viability was checked using an adenosine triphosphate monitoring system based on firefly luciferase (ATPlite™ 1step, PerkinElmer, MA, USA). IC50 values were calculated as an average of four quadruplicated tests (GraphPad Prism 5.0, CA, and USA). FIG. 13A and FIG. 13B are graphs showing the cell viability of NCI-N87 depending on the concentrations of DS-24 and DS-26, respectively, and FIG. 14A and FIG. 14B are graphs showing the cell viability of SK-OV3 depending on the concentrations of DS-24 and DS-26, respectively.
In general terms: In ATP-based viability assays light output follows the ATP content of the culture.

Data set [10] relates to NCI cell lines. In words: In vitro cell line activity, NCI NTP program. It counts as cell-based. The method, then:
The activity of Compound 3 was checked by requesting a sample to the NCI NTP program.
Based on the results shown in FIG. 6, it was analyzed whether there was any statistical significance in the reactivity depending on cancer types in the cell lines for which the anticancer effect was confirmed by the NCI NTP program.

Data set [11] deals with B16F10 (Murine melanoma Cell line). As to the kind of experiment: In vivo activity, B16F10 tumor volume. Particulars: 5 ug/kg, 50 ug/kg, 100 ug/kg, IV, twice a week. Details: species or system mouse.
Data set [12] concerns human ovarian cancer cells SK-OV3. In words: Cell growth inhibition assay (ATPlite), SK-OV3. It counts as cell-based. Details: unit not given beside the values. Particulars: 3 days of incubation. On the procedure: as §3
The nature of data set [13]: Hydrophobic interaction chromatography (HIC) analysis. It is filed as physicochemical. To be noted: inferred from HIC, DAR species appear as one.

SMILES strings stand for the structures. Non-standard residues stand in square brackets, D forms with d. Residues, ends and D or L forms follow the SMILES beside them. *: point of attachment. Dolaproine = CO[C@@H]([C@@H]1CCCN1)[C@@H](C)C(=O)O; Dil = CC[C@H](C)[C@H](NC)[C@@H](CC(=O)O)OC; X1 = C[C@@H](N*)[C@@H](O)c1ccccc1; NMeV = CN[C@H](C(=O)O)C(C)C

This is an account of results in patent publication US11938115B2, “Benzoselenophene-based compound, pharmaceutical composition containing same, and antibody-drug conjugate” (priority 2020, dated 2024).

As usually defined, the IC50 is the midpoint of a concentration-inhibition curve.

For the compound `COc1cc2cc(c1Cl)N(C)C(=O)C[C@H](OC(=O)[C@H](C)N(C)C(=O)CCC(C)(C)S)[C@]1(C)O[C@H]1[C@H](C)[C@@H]1C[C@@](O)(NC(=O)O1)[C@H](OC)/C=C/C=C(\C)C2` [DM4], the IC50 in data set [1] turned out to be 0.0202 nM; in data set [2], 8.15 nM; in data set [3] it was 1.51 nM; in data set [4], 53.1 nM; in data set [5] it was 0.0229 nM; in data set [6], 29.8 nM. Besides, the “cell viability inhibitory effect on cells derived from a patient with glioblastoma compared to KMS11 and RT112” value in data set [7] is listed as “remarkable decrease in the cell viability inhibitory effect”.

With `CCc1c2c(nc3ccc(O)cc13)-c1cc3c(c(=O)n1C2)COC(=O)[C@]3(O)CC` [SN-38], the IC50 in [1] is 15.6 nM; in data set [2], 146 nM; in data set [3], 67.8 nM; in data set [4], 97 nM; in data set [5], 169 nM; in data set [6], 128 nM. Further, half-maximal inhibition in data set [8] (IC50) was put at 131 nM. The “cell viability inhibitory effect compared with the other payloads” value in data set [7] was “lower cell viability inhibitory effect than the other payloads”.

On to `COc1ccc2c(O)cc3c(c2c1)[C@H](CCl)CN3C(=O)c1cc2cc(NC(=O)CCN3CCOCC3)ccc2[se]1` [Compound 3, (S)—N-(2-(1-(chloromethyl)-5-hydroxy-8-methoxy-2,3-dihydro-1H-benzo[e]indole-3-carbonyl)benzo[b]selenophen-5-yl)-3-morpholinopropanamide], for which the IC50 in [1] (Homo sapiens, RT-112, 168 h) stood at 0.00837 nM; in [2] (168 h), 0.215 nM; in data set [3] (Homo sapiens, U-87 MG, 168 h) it was 0.0339 nM; in [4] (GBM2, 168 h), 0.0264 nM; in data set [5] (Homo sapiens, KMS-11, 168 h), 0.0122 nM; in [6] (GBM1, 168 h), 0.98 nM. In addition, in [8] (GBM3, 168 h), the IC50 was 0.0313 nM. For the same compound, in data set [9], the “AUC (area under the curve), NCI-N87” value was 277. Besides, in data set [10] (non-small cell lung cancer, CNS cancer and melanoma compared to leukemia), the “TGI, sensitivity difference between cancer types” value was “tumor growth inhibition effect”. Also, the “activity by cancer type” value in [10] (non-small lung cancer, CNS cancer, melanoma, renal cancer) is on record as “remarkably strong activity”. Moreover, the “GI50 (Growth Inhibition 50%)” value in data set [10] (several cell lines) is “pM or less”. Moreover, in data set [11], the “in vivo activity (tumor volume)” value is reported as “in vivo activity even at a very low concentration”. Besides, the “AUC (area under the curve), SK-OV3” value in data set [12] came to 160. In addition, the “cell viability inhibitory effect compared with the other payloads” value in data set [7] is reported as “highest cell viability inhibitory effect among the compared materials”.

As for `COc1ccc2c(OC(=O)N(CCN(C)C(=O)OCc3ccc(O[C@@H]4O[C@@H](C(=O)O)[C@H](OC(C)=O)[C@@H](OC(C)=O)[C@@H]4OC(C)=O)cc3)Cc3cn(CCOCCOCCOCCNC(=O)CCN4C(=O)C=CC4=O)nn3)cc3c(c2c1)[C@H](CCl)CN3C(=O)c1cc2cc(NC(=O)CCN3CCOCC3)ccc2[se]1` [Compound 3-3, (2R,3R,4R,5S,6S)-3,4,5-triacetoxy-6-(4-((((2-(((((S)-1-(chloromethyl)-8-methoxy-3-(5-(3-morpholinopropanamido)benzo[b]selenophene-2-carbonyl)-2,3-dihydro-1H-benzo[e]indol-5-yl)oxy)carbonyl)((1-(15-(2,5-dioxo-2,5-dihydro-1H-pyrrol-1-yl)-13-oxo-3,6,9-trioxa-12-azapentadecyl)-1H-1,2,3-triazol-4-yl)methyl)amino)ethyl)(methyl)carbamoyl)oxy)methyl)phenoxy)tetrahydro-2H-pyran-2-carboxylic Acid], in data set [13], the “polarity and water solubility” value is “very high polarity and a good water solubility”.

Turning to `CC[C@H](C)[C@@H]([C@@H](CC(=O)N1CCC[C@H]1[C@H](OC)[C@@H](C)C(=O)N[C@@H](Cc1ccccc1)C(=O)O)OC)N(C)C(=O)[C@@H](NC(=O)[C@@H](NC)C(C)C)C(C)C` [MMAF] (HELM PEPTIDE1{[meV].V.[CC[C@H](C)[C@@H]([C@@H](CC(=O)[*:2])OC)N(C)[*:1]].[CO[C@H]([C@@H](C)C(=O)[*:2])[C@@H]1CCCN1[*:1]].F}$$$$V2.0), the IC50 in data set [1] came out at 112 nM; in [2], 8860 nM; in data set [3], 353 nM; in [4], 1360 nM; in data set [5] it was 91.4 nM; in [6], 16900 nM. This compound also displayed a half-inhibitory concentration (IC50) in data set [8] of 31100 nM. Further, the “cell viability inhibitory effect on cells derived from a patient with glioblastoma compared to KMS11 and RT112” value in data set [7] is on record as “remarkable decrease in the cell viability inhibitory effect”.

As to `COc1cc2cc(c1Cl)N(C)C(=O)C[C@H](OC(=O)[C@H](C)N(C)C(=O)CCS)[C@]1(C)O[C@H]1[C@H](C)[C@@H]1C[C@@](O)(NC(=O)O1)[C@H](OC)/C=C/C=C(\C)C2` [DM1], the IC50 was 0.0431 nM in [1]; 92.1 nM in data set [2]; 13.3 nM in data set [3]; 95.9 nM in [4]; 0.0441 nM in data set [5]; 133 nM in data set [6]. In addition, in [7], the “cell viability inhibitory effect on cells derived from a patient with glioblastoma compared to KMS11 and RT112” value is listed as “remarkable decrease in the cell viability inhibitory effect”.

On to `CC[C@H](C)[C@@H]([C@@H](CC(=O)N1CCC[C@H]1[C@H](OC)[C@@H](C)C(=O)N[C@H](C)[C@@H](O)c1ccccc1)OC)N(C)C(=O)[C@@H](NC(=O)[C@@H](NC)C(C)C)C(C)C` [MMAE] (H-[NMeV]V[Dil][Dolaproine]-X1), for which the IC50 was found to be 0.259 nM in data set [1]; 53.3 nM in data set [2]; 3.39 nM in data set [3]; 15 nM in [4]; 0.153 nM in [5]; 51.6 nM in [6]. For the same compound, the “cell viability inhibitory effect on cells derived from a patient with glioblastoma compared to KMS11 and RT112” value in data set [7] was “remarkable decrease in the cell viability inhibitory effect”.
